Like-named read-outs stand apart in the source and are kept apart here.
Tests used:
Test in all cases: microbe, parasite or virus in culture
[1] = system: ABC clinical isolates with SUL-DUR MIC > 4 µg/mL; format: cell-based, Acinetobacter baumannii-calcoaceticus complex; conditions: Acinetobacter
Method: (§1) The following report describes the genomic analysis of these isolates for likely resistance mechanisms. Biochemical analysis of purified PBP3 and phenotypic analyses of both clinical and isogenic strains were also conducted to determine the relative impact of key resistance determinants to SUL-DUR antibacterial activity.
(§2) Antimicrobial susceptibility testing was performed using broth microdilution following standardized methods established by the Clinical Laboratory Standards Institute (CLSI) ([35], [36]). […] MIC values were interpreted using CLSI breakpoints for all antimicrobial agents except those for which CLSI breakpoints are not available ([35]). SUL-DUR was tested as twofold dilutions of sulbactam in combination with a fixed concentration of 4 µg/mL durlobactam ([35]).

[2] = system: A. baumannii clinical isolates; format: cell-based; conditions: Acinetobacter baumannii
Method: as §1, §2

[3] = system: A. pittii clinical isolates; format: cell-based; conditions: Acinetobacter pittii
Method: as §1, §2

[4] = system: A. nosocomialis clinical isolate; format: cell-based; conditions: Acinetobacter nosocomialis, isolate ARC7023 (IHMA 2118812), France, BSI, 2019, read-out: MIC
Method: as §1, §2

## CN(C)c1cc(NC(=O)CNC(C)(C)C)c(O)c2c1C[C@H]1C[C@H]3[C@H](N(C)C)C(O)=C(C(N)=O)C(=O)[C@@]3(O)C(O)=C1C2=O [TIG, tigecycline]
[1]
  MIC50: 1 µg/mL
  MIC90: 2 µg/mL
[1]; read-out: MIC Max
  MIC: 16 µg/mL
[1]; read-out: MIC Min
  MIC: 0.13 µg/mL
[2]; isolate ARC6644 (IHMA 1420327), Mexico, UTI, 2016, read-out: MIC
  MIC: 1 µg/mL
[2]; isolate ARC6645 (IHMA 1435703), France, UTI, 2016, read-out: MIC
  MIC: 0.25 µg/mL
[2]; isolate ARC6646 (IHMA 1484127), United States, RTI, 2016, read-out: MIC
  MIC: 1 µg/mL
[2]; isolate ARC6647 (IHMA 1386786), Argentina, RTI, 2016, read-out: MIC
  MIC: 0.12 µg/mL
[2]; isolate ARC6648 (IHMA 1407634), Spain, RTI, 2016, read-out: MIC
  MIC: 1 µg/mL
[2]; isolate ARC6650 (IHMA 1457337), Argentina, RTI, 2016, read-out: MIC
  MIC: 1 µg/mL
[2]; isolate ARC6652 (IHMA 1465642), Belgium, RTI, 2016, read-out: MIC
  MIC: 0.25 µg/mL
[2]; isolate ARC6653 (IHMA 1308777), Vietnam, RTI, 2016, read-out: MIC
  MIC: 1 µg/mL
[2]; isolate ARC6799 (IHMA 1562935), Spain, UTI, 2017, read-out: MIC
  MIC: 1 µg/mL
[2]; isolate ARC6800 (IHMA 1557526), Turkey, RTI, 2017, read-out: MIC
  MIC: 1 µg/mL
[2]; isolate ARC6801 (IHMA 1662094), Thailand, RTI, 2017, read-out: MIC
  MIC: 1 µg/mL
[2]; isolate ARC6802 (IHMA 1557073), Spain, UTI, 2017, read-out: MIC
  MIC: 1 µg/mL
[2]; isolate ARC6803 (IHMA 1589408), Belgium, UTI, 2017, read-out: MIC
  MIC: 1 µg/mL
[2]; isolate ARC6805 (IHMA 1558650), United States, RTI, 2017, read-out: MIC
  MIC: 1 µg/mL
[2]; isolate ARC6808 (IHMA 1557168), Spain, RTI, 2017, read-out: MIC
  MIC: 1 µg/mL
[2]; isolate ARC6809 (IHMA 1699528), Guatemala, RTI, 2017, read-out: MIC
  MIC: 0.5 µg/mL
[2]; isolate ARC6810 (IHMA 1699548), Guatemala, RTI, 2017, read-out: MIC
  MIC: 1 µg/mL
[2]; isolate ARC6812 (IHMA 1699530), Guatemala, RTI, 2017, read-out: MIC
  MIC: 0.5 µg/mL
[2]; isolate ARC6813 (IHMA 1699543), Guatemala, UTI, 2017, read-out: MIC
  MIC: 0.25 µg/mL
[2]; isolate ARC6814 (IHMA 1699512), Guatemala, RTI, 2017, read-out: MIC
  MIC: 1 µg/mL
[2]; isolate ARC6815 (IHMA 1699513), Guatemala, RTI, 2017, read-out: MIC
  MIC: 0.5 µg/mL
[2]; isolate ARC6816 (IHMA 1699521), Guatemala, RTI, 2017, read-out: MIC
  MIC: 2 µg/mL
[2]; isolate ARC6817 (IHMA 1699523), Guatemala, RTI, 2017, read-out: MIC
  MIC: 0.5 µg/mL
[2]; isolate ARC6818 (IHMA 1683261), Thailand, RTI, 2017, read-out: MIC
  MIC: 0.25 µg/mL
[2]; isolate ARC6819 (IHMA 1683267), Thailand, RTI, 2017, read-out: MIC
  MIC: 2 µg/mL
[2]; isolate ARC6820 (IHMA 1647876), Argentina, RTI, 2017, read-out: MIC
  MIC: 0.5 µg/mL
[2]; isolate ARC6821 (IHMA 1699517), Guatemala, RTI, 2017, read-out: MIC
  MIC: 0.25 µg/mL
[2]; isolate ARC6822 (IHMA 1637626), Guatemala, RTI, 2017, read-out: MIC
  MIC: 0.25 µg/mL
[2]; isolate ARC6823 (IHMA 1620872), Greece, SSSI, 2017, read-out: MIC
  MIC: 1 µg/mL
[2]; isolate ARC6824 (IHMA 1625487), Argentina, BSI, 2017, read-out: MIC
  MIC: 0.5 µg/mL
[2]; isolate ARC6937 (IHMA 1562926), Spain, UTI, 2017, read-out: MIC
  MIC: 1 µg/mL
[2]; isolate ARC6950 (IHMA 1820064), Israel, RTI, 2018, read-out: MIC
  MIC: 0.5 µg/mL
[2]; isolate ARC6953 (IHMA 1909827), Turkey, IAI, 2018, read-out: MIC
  MIC: 0.5 µg/mL
[2]; isolate ARC6954 (IHMA 1838192), Guatemala, SSSI, 2018, read-out: MIC
  MIC: 0.5 µg/mL
[2]; isolate ARC6955 (IHMA 1825425), United States, RTI, 2018, read-out: MIC
  MIC: 0.5 µg/mL
[2]; isolate ARC7008 (IHMA 2009813), Thailand, BSI, 2019, read-out: MIC
  MIC: 1 µg/mL
[2]; isolate ARC7009 (IHMA 2043611), United States, UTI, 2019, read-out: MIC
  MIC: 1 µg/mL
[2]; isolate ARC7010 (IHMA 2043398), United States, RTI, 2019, read-out: MIC
  MIC: 1 µg/mL
[2]; isolate ARC7011 (IHMA 2104553), Germany, RTI, 2019, read-out: MIC
  MIC: 2 µg/mL
[2]; isolate ARC7012 (IHMA 2010001), Thailand, RTI, 2019, read-out: MIC
  MIC: 1 µg/mL
[2]; isolate ARC7013 (IHMA 1962831), Argentina, RTI, 2019, read-out: MIC
  MIC: 0.12 µg/mL
[2]; isolate ARC7014 (IHMA 2045328), Guatemala, IAI, 2019, read-out: MIC
  MIC: 1 µg/mL
[2]; isolate ARC7015 (IHMA 2045327), Guatemala, UTI, 2019, read-out: MIC
  MIC: 0.5 µg/mL
[2]; isolate ARC7016 (IHMA 2148441), Brazil, BSI, 2019, read-out: MIC
  MIC: 0.5 µg/mL
[2]; isolate ARC7017 (IHMA 2148446), Brazil, BSI, 2019, read-out: MIC
  MIC: 0.5 µg/mL
[2]; isolate ARC7018 (IHMA 2045454), Guatemala, IAI, 2019, read-out: MIC
  MIC: 1 µg/mL
[2]; isolate ARC7019 (IHMA 2114463), Thailand, RTI, 2019, read-out: MIC
  MIC: 16 µg/mL
[2]; isolate ARC7020 (IHMA 2045326), Guatemala, RTI, 2019, read-out: MIC
  MIC: 1 µg/mL
[2]; isolate ARC7021 (IHMA 1966347), Guatemala, RTI, 2019, read-out: MIC
  MIC: 0.5 µg/mL
[2]; isolate ARC7022 (IHMA 2045319), Guatemala, IAI, 2019, read-out: MIC
  MIC: 2 µg/mL
[2]; isolate ARC7024 (IHMA 2059448), Turkey, RTI, 2019, read-out: MIC
  MIC: 2 µg/mL
[2]; isolate ARC7025 (IHMA 2002121), Spain, RTI, 2019, read-out: MIC
  MIC: 1 µg/mL
[2]; isolate ARC7026 (IHMA 2104494), Guatemala, BSI, 2019, read-out: MIC
  MIC: 1 µg/mL
[2]; isolate ARC7082 (IHMA 2160640), Belgium, BSI, 2020, read-out: MIC
  MIC: 1 µg/mL
[2]; isolate ARC7083 (IHMA 2163687), United States, RTI, 2020, read-out: MIC
  MIC: 2 µg/mL
[2]; isolate ARC7084 (IHMA 2189596), Germany, RTI, 2020, read-out: MIC
  MIC: 2 µg/mL
[2]; isolate ARC7085 (IHMA 2205747), Guatemala, IAI, 2020, read-out: MIC
  MIC: 0.5 µg/mL
[2]; isolate ARC7086 (IHMA 2207563), Israel, RTI, 2020, read-out: MIC
  MIC: 2 µg/mL
[2]; isolate ARC7088 (IHMA 2215554), Turkey, BSI, 2020, read-out: MIC
  MIC: 2 µg/mL
[2]; isolate ARC7089 (IHMA 2240345), Argentina, BSI, 2020, read-out: MIC
  MIC: 1 µg/mL
[2]; isolate ARC7090 (IHMA 2244410), Poland, RTI, 2020, read-out: MIC
  MIC: 2 µg/mL
[2]; isolate ARC7091 (IHMA 2244564), Australia, RTI, 2020, read-out: MIC
  MIC: 0.5 µg/mL
[2]; isolate ARC7092 (IHMA 2258772), United States, BSI, 2020, read-out: MIC
  MIC: 1 µg/mL
[2]; isolate ARC7093 (IHMA 2258783), United States, RTI, 2020, read-out: MIC
  MIC: 2 µg/mL
[2]; isolate ARC7094 (IHMA 2296423), Turkey, RTI, 2020, read-out: MIC
  MIC: 1 µg/mL
[2]; isolate ARC7095 (IHMA 2320843), Turkey, BSI, 2020, read-out: MIC
  MIC: 0.5 µg/mL
[2]; isolate ARC7156 (IHMA 2455450), Greece, RTI, 2021, read-out: MIC
  MIC: 2 µg/mL
[2]; isolate ARC7158 (IHMA 2523738), Italy, BSI, 2021, read-out: MIC
  MIC: 1 µg/mL
[2]; isolate ARC7159 (IHMA 2456229), Malaysia, RTI, 2021, read-out: MIC
  MIC: 1 µg/mL
[2]; isolate ARC7160 (IHMA 2458626), Thailand, RTI, 2021, read-out: MIC
  MIC: 2 µg/mL
[2]; isolate ARC7161 (IHMA 2429252), Ukraine, RTI, 2021, read-out: MIC
  MIC: 2 µg/mL
[2]; isolate ARC7162 (IHMA 2411847), United States, BSI, 2021, read-out: MIC
  MIC: 1 µg/mL
[2]; isolate ARC7163 (IHMA 2477704), United States, BSI, 2021, read-out: MIC
  MIC: 1 µg/mL
[3]; isolate ARC6949 (IHMA 1898982), Romania, RTI, 2018, read-out: MIC
  MIC: 0.5 µg/mL
[3]; isolate ARC6951 (IHMA 1776233), Philippines, RTI, 2018, read-out: MIC
  MIC: 0.25 µg/mL
[3]; isolate ARC6952 (IHMA 1899008), Romania, RTI, 2018, read-out: MIC
  MIC: 1 µg/mL
[3]; isolate ARC7087 (IHMA 2212062), Colombia, BSI, 2020, read-out: MIC
  MIC: 0.25 µg/mL
[4]
  MIC: 0.25 µg/mL

From paper PMC10648852, “Molecular drivers of resistance to sulbactam-durlobactam in contemporary clinical isolates of Acinetobacter baumannii” (Antimicrobial Agents and Chemotherapy, 2023)
